Activity calls are given as the source filed them.
Columns and labels:
[1] = target: Induced myeloid leukemia cell differentiation protein Mcl-1 (Homo sapiens, UniProt Q07820); format: functional
[2] = THP-1 cell cytotoxicity, dose response, cytotoxicity control for Vif-APOBEC3G degradation inhibitor project, THP-1 cells (AID 1117359); format: functional; conditions: Human immunodeficiency virus 1, THP-1
[3] = cytotoxicity in KRAS-transformed pancreatic duct cells, primary screen, cell-based, fluorescence, HTS (AID 431); format: functional; conditions: Homo sapiens;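 further: cell line used: HPDE-C7K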
[4] = target: T1, Glutathione-S-transferase (Schistosoma japonicum, UniProt Q26513); test: biotin-GST/anti-GST TR-FRET signal inhibitors, dose response, artefact control for Vif-APOBEC3G degradation inhibitor project, biochemical (AID 1117362); format: functional
T1 sequence (Q26513 whole entry): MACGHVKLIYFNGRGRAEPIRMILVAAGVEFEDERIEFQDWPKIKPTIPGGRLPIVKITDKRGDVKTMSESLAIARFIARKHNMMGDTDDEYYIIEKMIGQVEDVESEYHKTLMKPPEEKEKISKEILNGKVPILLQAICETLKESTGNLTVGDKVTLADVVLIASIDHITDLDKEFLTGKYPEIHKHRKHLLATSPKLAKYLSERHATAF

[5] = cytotoxicity in HPDE-C7 cells, cell-based, fluorescence, HTS (AID 430); format: functional; conditions: Homo sapiens
[6] = target: T2, Protein Tat (Human immunodeficiency virus type 1 group M subtype B (isolate HXB2)(HIV-1), UniProt P04608); format: functional;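 further: tat binding to TAR RNA read out by fluorescence polarization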
T2 sequence (P04608 whole entry): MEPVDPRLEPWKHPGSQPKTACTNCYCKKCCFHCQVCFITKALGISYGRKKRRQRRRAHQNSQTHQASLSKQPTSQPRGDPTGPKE

[7] = cytotoxicity in HEK-293T cells, dose response, cytotoxicity control for TCR NF-kB inhibitor project, luminescence, T-cell screen hits (AID 489026); format: functional, cell-based;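 further: cells exposed to compound about 14 hours before the viability readout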
[8] = inhibitors of firefly luciferase expression or activity, dose response, H4 neuroglioma cells, luminescence (AID 1990); format: functional, cell-based
[9] = Luminescence Cell-Based Dose Response HTS to Identify Inhibitors of 5'UTR Stem-Loop Driven Prion Protein mRNA Translation in H4 Neuroglioblastoma Cells. [Related pubchem assays: 1827 (Project Summary), 1813 (Primary HTS)]; format: functional
[10] = inhibitors of SNCA 5'UTR-driven reporter translation, confirmation, H4 neuroglioma cells, luminescence (AID 1988); format: functional, cell-based
[11] = HepG2 cell cytotoxicity, dose response, cytotoxicity control, plate reader, cherry-pick, antagonist series (AID 743416); format: functional, cell-based
[12] = A549 cell cytotoxicity, dose response, cytotoxicity control, plate reader, cherry-pick, antagonist series (AID 743412); format: functional, cell-based
[13] = MC4R antagonists, dose response, counter-screen for LGR2 antagonist project, cell-based, plate reader, cherry pick (AID 743444); format: functional;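 further: transfected HEK 293 cells stimulated with alpha-MSH peptide; potency of inhibitors of the alpha-MSH evoked signal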
[14] = LGR2 antagonists, dose response, cell-based, HEK293, CRE-luciferase reporter, cherry pick, set 2 (AID 743343); format: functional;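 further: transfected cells were stimulated with diluted bursicon conditioned medium after compound addition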
[15] = target: T3, Microphthalmia-associated transcription factor (Homo sapiens, UniProt O75030); test: TRPM1 promoter luciferase signal decrease, dose response, MITF inhibitor project, cell-based, SK-MEL-5, cherry-picked, set 3 (AID 493073); format: functional
T3 sequence (O75030 whole entry): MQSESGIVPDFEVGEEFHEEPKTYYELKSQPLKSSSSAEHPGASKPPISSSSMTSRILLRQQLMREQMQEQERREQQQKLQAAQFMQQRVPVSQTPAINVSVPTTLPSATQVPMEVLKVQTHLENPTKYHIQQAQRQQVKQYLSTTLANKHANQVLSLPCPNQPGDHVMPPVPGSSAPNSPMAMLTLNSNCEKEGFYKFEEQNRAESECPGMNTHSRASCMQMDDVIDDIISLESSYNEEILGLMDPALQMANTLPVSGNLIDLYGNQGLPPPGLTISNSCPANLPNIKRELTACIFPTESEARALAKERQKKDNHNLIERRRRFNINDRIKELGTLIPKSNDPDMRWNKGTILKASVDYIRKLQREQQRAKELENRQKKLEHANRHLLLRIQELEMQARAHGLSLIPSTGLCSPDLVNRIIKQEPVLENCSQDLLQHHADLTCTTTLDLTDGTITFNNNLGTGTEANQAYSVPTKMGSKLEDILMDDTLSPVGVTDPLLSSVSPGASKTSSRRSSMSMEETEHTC

[16] = inhibitors of PGC1a acetylation in cells, dose response, cell-based, cherry-picked samples (AID 720514); format: functional;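 further: potency may reflect raised or lowered acetylation signal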
[17] = HEK293 cell cytotoxicity, dose response, cytotoxicity control, plate reader, cherry-picked samples (AID 743446); format: functional, cell-based
[18] = target: T4, Protein skinhead-1 (Caenorhabditis elegans, UniProt P34707); format: functional
T4 sequence (P34707 whole entry): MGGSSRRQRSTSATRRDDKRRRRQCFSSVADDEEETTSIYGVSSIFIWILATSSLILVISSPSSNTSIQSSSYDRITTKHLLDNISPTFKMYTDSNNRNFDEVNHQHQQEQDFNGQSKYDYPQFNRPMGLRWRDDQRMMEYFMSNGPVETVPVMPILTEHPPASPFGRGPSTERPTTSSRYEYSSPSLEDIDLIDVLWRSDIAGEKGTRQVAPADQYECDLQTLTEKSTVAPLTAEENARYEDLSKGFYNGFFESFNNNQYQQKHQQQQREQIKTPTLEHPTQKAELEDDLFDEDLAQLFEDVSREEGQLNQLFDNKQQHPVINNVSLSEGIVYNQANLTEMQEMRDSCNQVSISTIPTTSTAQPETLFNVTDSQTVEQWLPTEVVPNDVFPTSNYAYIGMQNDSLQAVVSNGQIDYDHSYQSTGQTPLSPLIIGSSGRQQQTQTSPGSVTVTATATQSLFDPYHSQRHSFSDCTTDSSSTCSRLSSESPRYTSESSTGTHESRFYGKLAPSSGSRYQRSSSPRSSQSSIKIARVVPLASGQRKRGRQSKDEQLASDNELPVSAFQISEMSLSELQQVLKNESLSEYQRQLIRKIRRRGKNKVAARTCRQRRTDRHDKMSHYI

[19] = target: Nonstructural protein 1 (Influenza A virus, UniProt Q194T2); format: functional, Influenza A virus (A/California/07/2009(H1N1))
Chain of Nonstructural protein 1 (Q194T2 whole entry): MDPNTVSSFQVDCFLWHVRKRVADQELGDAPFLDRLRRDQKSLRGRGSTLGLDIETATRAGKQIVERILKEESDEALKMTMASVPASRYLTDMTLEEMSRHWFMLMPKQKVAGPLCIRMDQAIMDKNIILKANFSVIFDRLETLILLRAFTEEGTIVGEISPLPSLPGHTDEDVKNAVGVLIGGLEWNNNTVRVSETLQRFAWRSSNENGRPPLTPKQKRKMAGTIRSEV

[20] = P. falciparum Dd2 growth inhibitors, dose response, SYBR Green, cherry-picked samples (AID 1159567); format: functional, cell-based

Chain of Induced myeloid leukemia cell differentiation protein Mcl-1 (Q07820 whole entry): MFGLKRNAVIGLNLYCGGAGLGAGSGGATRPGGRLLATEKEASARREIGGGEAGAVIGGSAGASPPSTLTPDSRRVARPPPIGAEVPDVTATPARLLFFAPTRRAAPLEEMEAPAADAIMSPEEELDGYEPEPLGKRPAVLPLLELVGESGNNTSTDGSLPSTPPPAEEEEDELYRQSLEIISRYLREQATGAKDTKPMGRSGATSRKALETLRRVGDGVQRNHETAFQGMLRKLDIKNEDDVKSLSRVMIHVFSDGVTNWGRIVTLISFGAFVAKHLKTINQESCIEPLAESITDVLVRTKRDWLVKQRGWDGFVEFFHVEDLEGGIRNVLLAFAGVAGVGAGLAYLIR

## COC(=O)CSc1ncnc2c1sc1nc(-c3ccco3)c3c(c12)CC(C)(C)OC3
[1]
  IC50: 4.15 µM (active)

## Nc1ccc(N2CCCCCC2)cc1
[2]
  CC50: 13.3 µM (active)
[3]
  EC50: 15.4 µM (active)
[4]
  IC50: 44.5 µM (active)
[5]
  EC50: 13.3 µM (active)
[6]
  IC50: 11.8 µM (inconclusive)

## COC(=O)c1ccc(C)c(NS(=O)(=O)c2ccc3c(c2)OCCO3)c1
[7]
  IC50: > 80 µM (inactive)
[8]
  EC50: 8.4 µM (inconclusive)
[9]
  EC50: 9.9 µM (active)
[10]
  EC50: 1.3 µM (active)

## Cn1nnnc1Sc1ncnc2scc(-c3ccc(C#N)cc3)c12
[11]
  AC50: 7.68 µM (active)
[12]
  AC50: 7.28 µM (active)
[13]
  AC50: 3.6 µM (active)
[14]
  AC50: 5.18 µM (active)
[15]
  AC50: 4.98 µM (active)
[16]
  AC50: 8.12 µM (active)
[17]
  AC50: 10.9 µM (active)

## CCN(CC)c1ccc(C(=S)N2CCN(c3ccccc3)CC2)cc1
[18]
  IC50: > 100 µM (inactive)
[19]
  IC50: > 100 µM (active)

## COc1cc(/C=N/NC(=S)NCCN2CCOCC2)cc(OC)c1O
[19]
  IC50: 70.1 µM (active)

## COc1ccccc1NC(=O)c1cnc(Nc2ccccc2OC)c2ccccc12
[7]
  IC50: > 80 µM (inactive)

## O=C(Nc1ccc(Cl)c(S(=O)(=O)N2CCOCC2)c1)c1ccc(OCC2CCCO2)cc1 (centres undefined)
[7]
  IC50: 16.9 µM (active)
[15]
  AC50: 3.26 µM (active)

## C[C@@H]1CN([C@H](C)CO)C(=O)c2cc(-c3ccc(C#N)cc3)cnc2O[C@H]1CN(C)C(=O)Nc1ccc(C(F)(F)F)cc1
[20]
  AC50: 21.2 µM (active)
